Test results reported in patent US20030065039A1, “Biologically active 1,3-bis-aromatic-prop-2-en-1-ones, 1,3-bis-aromatic-propan-1-ones, and 1,3-bis-aromatic-prop-2-yn-1-ones” (Statens Serum Institute, priority 1997, published 2003).
≈ marks a conversion by molar mass, not a printed value. Where two headings read alike, the source gives them in different places.

Legend:
IL-2 = test: Intracellular cytokine staining in stimulated human mononuclear cells; type: cell-based; conditions: 25 μg/ml compound
Protocol: (§1) Therefore, experiments were performed to examine the effect of Licochalcone A and SBC-35ma on secretion of TNF-α from the stimulated cells. These experiments included detection of the cytokines in the cell lysate by ELISA and staining of the intracellular cytokines by using monoclonal antibodies against these cytokines and cytokine receptors.
(§2) Table 3. Effect of Licochalcone A and SBC-35ma on the presence of intracellur cytokines in the human peripheral blood mononuclear cells stimulated either with a malarial exoantigen SPAG (diluted 1:12.5) or bacterial LPS (diluted 1:1000). The cells were preincubated with 25 μg/ml of each of the compounds for 2 hours and then incubated in the presence of antigens at 37° C. overnight. The cells were permeabilized and then fixed in paraformaldehyde Cytokine specific monoclonal antibodies were used for the detection of positive cells for each cytokine. Data are presented as percentages of positive cells for each cytokine.

IL-1α = test: as above; type: cell-based; conditions: 25 μg/ml compound, 2 hours preincubation
Protocol: as §1, §2

IL-4 = test: as above; type: cell-based; conditions: 25 μg/ml compound
Protocol: as §1, §2

IL-6 = test: as above; type: cell-based; conditions: 25 μg/ml compound
Protocol: as §1, §2

IL-1ra = test: as above; type: cell-based; conditions: 25 μg/ml compound
Protocol: as §1, §2

TNF-α [1] = test: as above; type: cell-based; conditions: 25 μg/ml compound
Protocol: as §1, §2

IL-1β = test: as above; type: cell-based; conditions: 25 μg/ml compound
Protocol: as §1, §2

[2] = Preliminary 14 days oral toxicity study in rats; type: in vivo; conditions: highest dose level 1000 mg/kg/day
Protocol: A preliminary 14 days oral toxicity study in rats was carried out with 6 compounds. Observations included clinical signs, body weights, food intake, haematology, clinical chemistry and macroscopic pathology.

Helicobacter pylori = test: Helicobacter species Assay (agar plate, MIC); type: cell-based; conditions: for MIC: 20 strains of H. pylori, agar plate, 72 hours; for No. strains inhibited/No. strains tested: at the MIC of the same line
Protocol: (§3) 20 strains of Helicobacter pylori were used in an agar plate assay. The compounds were incorporated in the agar plates at different concentrations as described in the examples and were then inoculated with different strains of Helicobacter pylori followed by incubation in a microaerophilic atmosphere at 37° C. for 72 hours. The number of colony-forming units (CFU) were counted after the incubation period. The MIC values were determined as the minimal concentration required to inhibit growth of the bacteria.
(§4) Stock solutions were made at a concentration of 1 mg/ml by dissolving 1 mg of each compound in 100 μl DMSO (dimethylsulfoxide) followed by addition of 900 μl of heat-inactivated fetal claf serum (HFCS). These stock solutions were diluted with HFCS to make solutions having the following concentrations: 320 μg/ml, 160 μg/ml, 80 μg/ml, 40 μg/ml and 20 μg/ml. Dilution rows were made with 3 ml aliquots in vials containing the compounds in the following final test concentrations: 16 μg/ml, 8 μg/ml, 4 μg/ml, 2 μg/ml and 1 μg/ml. As control was used DMSO-HFCS containing an amount of DMSO equal to the amount of test compound in the solution with 320 μg/ml compound.
as §3, with “Bacteria: 20” for “20”, “concentrations” for “concentrations as described in the examples”, “and then they” for “and”, “were” for “were then”, “incubation at” for “incubation in a”, “C. in” for “C. for”
as §4, with “concentrations: 2560 μg/ml, 1280 μg/ml, 640 μg/ml,” for “concentrations:”, “160 µg/ml and” for “160 μg/ml,”, “80” for “80 μg/ml, 40 μg/ml and 20”, “concentrations: 128 μg/ml, 64 μg/ml, 32 μg/ml, 12” for “concentrations: 16”, “8” for “8 μg/ml, 4 μg/ml, 2”, “and 4” for “and 1”
Bacteria: 20 strains of Helicobacter pylori were used in an agar plate assay. The same method as described above under Experiment A was employed and MIC values were determined.

TNF-α [3] = test: Intracellular TNF-α in human mononuclear cells (flow cytometry); type: cell-based; conditions: for % TNFα- producing cells: DMSO 10.1
Protocol: [table] Incubation condition: Cells and mitogen added at the same time and the compound solution added immediately after in polypropylene tubes and incubated at 37° C. in CO2 incubator overnight. The following day the cells and the supernatant were harvested for TNF-α determination. Incubation condition: Cells and mitogen added at the same time and the compound solution added immediately after in polypropylene tubes and incubated at 37° C. in CO2 incubator overnight. The following day the cells and the supernatant were harvested for TNF-α determination.

[4] = Helicobacter pylori, read-out: MIC

In the case of C=CC(C)(C)c1cc(/C=C/C(=O)c2ccc(O)cc2)c(OC)cc1O [Licochalcone A], the “percentages of positive cells for IL-2” value (IL-2; LPS 1:1000, LPS alone 2.0) is reported as 3.6%, the “percentages of positive cells for IL-2” value (IL-2; SPAG 1:12.5, SPAG alone 3.1) is reported as 5.2% and the “percentages of positive cells for IL-1α” value (IL-1α; LPS 1:1000, LPS alone 13) is reported as 15%. The “percentages of positive cells for IL-1α” value (IL-1α; SPAG 1:12.5, SPAG alone 11) was 9.1%, the “percentages of positive cells for IL-4” value (IL-4; LPS 1:1000, LPS alone 0) was 0% and the “percentages of positive cells for IL-4” value (IL-4; SPAG 1:12.5, SPAG alone 0) was 0.69%. The “percentages of positive cells for IL-6” value (IL-6; LPS 1:1000, LPS alone 4.3) was 6.7%, the “percentages of positive cells for IL-6” value (IL-6; SPAG 1:12.5, SPAG alone 5.6) was 6.2% and the “percentages of positive cells for IL-1ra” value (IL-1ra; LPS 1:1000, LPS alone 5.1) was 7.6%. The “percentages of positive cells for IL-1ra” value (IL-1ra; SPAG 1:12.5, SPAG alone 6.6) was 2.9%, the “percentages of positive cells for TNF-α” value (TNF-α [1]; LPS 1:1000, LPS alone 0.30) was 0.70% and the “percentages of positive cells for TNF-α” value (TNF-α [1]; SPAG 1:12.5, SPAG alone 0.96) was 1.0%. For the same compound, the “percentages of positive cells for IL-1β” value (IL-1β; LPS 1:1000, LPS alone 9.1) was 12%, the “percentages of positive cells for IL-1β” value (IL-1β; SPAG 1:12.5, SPAG alone 13) was 13% and the toxic effects [2] was “No toxic effects”. The “growth of the strains of H. pylori (FIGS. 1 and 2)” value (Helicobacter pylori) was “inhibited the growth of all the strains”, the “strains that gave a MIC value equal to or less than 16 μg/ml” value (Helicobacter pylori; 20 strains) was 20 out of 20 and the MIC (Helicobacter pylori) was 16 µg/mL (≈ 47.3 µM). The “No. strains inhibited/No. strains tested” value (Helicobacter pylori) was 20/20.
In the case of COc1cc(/C=C/C(=O)c2ccc(C3CCCCC3)cc2)cc(OC)c1 [PH104, 3,5-dimethoxy-4′-cyclohexylchalcone], the “growth of the strains of H. pylori (FIGS. 1 and 2)” value (Helicobacter pylori) is reported as “inhibited the growth of all the strains”, the MIC (Helicobacter pylori; [4]) is reported as 64 µg/mL (≈ 183 µM) and the “No. strains inhibited/No. strains tested” value (Helicobacter pylori) is reported as 15/20. The “% TNF-α producing cells” value (TNF-α [3]; 1b Experiment 1, LPS 0.5 μg/ml, compound 12.5 μg/ml, DMSO 13.8) was 2.4%, the “% TNF-α producing cells” value (TNF-α [3]; 1b Experiment 1, LPS 0.5 μg/ml, compound 25.0 μg/ml, DMSO 13.8) was 1.4% and the “% TNF-α producing cells” value (TNF-α [3]; 1b Experiment 2, LPS 1 μg/ml, compound 3.125 μg/ml, DMSO 4.0) was 2.4%. For the same compound, the “% TNF-α producing cells” value (TNF-α [3]; 1b Experiment 2, LPS 1 μg/ml, compound 6.25 μg/ml, DMSO 4.0) was 1.0%, the “% TNF-α producing cells” value (TNF-α [3]; 1b Experiment 2, LPS 1 μg/ml, compound 12.5 μg/ml, DMSO 4.0) was 1.7% and the “% TNFα- producing cells” value (TNF-α [3]; 1b Experiment 3, LPS 1 μg/ml, compound 3.125 μg/ml) was 2.9%. The “% TNFα- producing cells” value (TNF-α [3]; 1b Experiment 3, LPS 1 μg/ml, compound 6.25 μg/ml) was 1.1%, the “% TNFα- producing cells” value (TNF-α [3]; 1b Experiment 3, LPS 1 μg/ml, compound 12.5 μg/ml) was 1.2% and the “% TNF-α producing cells” value (TNF-α [3]; 1b Experiment 4, LPS 1 μg/ml, compound 3.125 μg/ml, DMSO 14.6) was 3.0%. The “% TNF-α producing cells” value (TNF-α [3]; 1b Experiment 4, LPS 1 μg/ml, compound 6.25 μg/ml, DMSO 14.6) was 0.8%, the “% TNF-α producing cells” value (TNF-α [3]; 1b Experiment 4, LPS 1 μg/ml, compound 12.5 μg/ml, DMSO 14.6) was 1.0% and the inhibition at 12.5 µg/mL (TNF-α [3]; Homo sapiens, 1b Experiment 1, LPS 0.5 μg/ml, compound 12.5 μg/ml, read-out: % inhibition) was 83%. It also gave an inhibition at 25 µg/mL (TNF-α [3]; Homo sapiens, 1b Experiment 1, LPS 0.5 μg/ml, compound 25.0 μg/ml) of 90%, an inhibition at 3.125 µg/mL (TNF-α [3]; Homo sapiens, 1b Experiment 2, LPS 1 μg/ml, compound 3.125 μg/ml) of 40% and an inhibition at 6.25 µg/mL (TNF-α [3]; Homo sapiens, 1b Experiment 2, LPS 1 μg/ml, compound 6.25 μg/ml, read-out: Intracellular % inhibition) of 75%. For the same compound, the inhibition at 12.5 µg/mL (TNF-α [3]; Homo sapiens, 1b Experiment 2, LPS 1 μg/ml, compound 12.5 μg/ml, read-out: Intracellular % inhibition) was 58%, the inhibition at 3.125 µg/mL (TNF-α [3]; Homo sapiens, 1b Experiment 3, LPS 1 μg/ml, compound 3.125 μg/ml) was 71% and the inhibition at 6.25 µg/mL (TNF-α [3]; Homo sapiens, 1b Experiment 3, LPS 1 μg/ml, compound 6.25 μg/ml, read-out: Intracellular % inhibition) was 89%. For the same compound, the inhibition at 12.5 µg/mL (TNF-α [3]; Homo sapiens, 1b Experiment 3, LPS 1 μg/ml, compound 12.5 μg/ml, read-out: Intracellular % inhibition) was 88%, the inhibition at 3.125 µg/mL (TNF-α [3]; Homo sapiens, 1b Experiment 4, LPS 1 μg/ml, compound 3.125 μg/ml) was 79% and the inhibition at 6.25 µg/mL (TNF-α [3]; Homo sapiens, 1b Experiment 4, LPS 1 μg/ml, compound 6.25 μg/ml, read-out: Intracellular % inhibition) was 95%. The inhibition at 12.5 µg/mL (TNF-α [3]; Homo sapiens, 1b Experiment 4, LPS 1 μg/ml, compound 12.5 μg/ml, read-out: Intracellular % inhibition) was 93%.
In the case of COc1cc(/C=C/C(=O)c2ccc([N+](=O)[O-])cc2)cc(OC)c1 [PH105, 4′-nitro-3,5-dimethoxychalcone], the MIC (Helicobacter pylori; [4]) is reported as 16 µg/mL (≈ 51.1 µM), the “strains of Helicobacter pylori inhibited” value (Helicobacter pylori; at a concentration of 16 μg/ml, 20 strains) is reported as 12 out of 20 and the “No. strains inhibited/No. strains tested” value (Helicobacter pylori) is reported as 12/20.
